Patent US20110208162A1, “METHODS FOR PREVENTING AGGREGATION OF ADIPOSE STROMAL CELLS” (Indiana University Rsearch and Technology Corporation, priority 2008, published 2011)
“Also recorded” adds a separate entry of the source.

Tests used:
ASCs = assay: Aggregation of fresh SVF or cultured ASCs in suspension buffer; type: cell-based, porcine or human; details: for concentration dependence of inhibition of ASC aggregation: EDTA detached ASCs, 2 hours vigorous shaking
Protocol: SVF was isolated from either excised dorsal hump (porcine) or lipoaspirated subcutaneous (human) adipose tissues using reagents and protocols supplied by Tissue Genesis Inc. (TGI). Cells were used either fresh or after enrichment for stromal cells, containing adipose-derived stem cells (ADSC), by attachment to and growth on uncoated tissue culture plastic. Low passage (P1-P4) cultured ASCs were detached from plastic by 2 mM EDTA treatment. 2−3×10^6 fresh SVF or cultured ASCs were incubated for increasing times in 1 ml of TGI suspension buffer, containing human serum proteins, under varying conditions as indicated in Figure legends. Cell suspensions were vigorously rocked during incubation. At the times indicated the suspensions were observed macroscopically, noting aggregate size and number, as well as microscopically, to quantitate aggregates (defined as a tightly associated grouping of 4 or more cells) as well as individual cells.

ASC = ASC proliferation in presence of heparin; type: cell-based
freshly isolated ASC = assay: Observation of aggregation of freshly isolated ASC after resuspension in delivery medium; type: cell-based, pig; details: pre-treating SVF with heparin before infusion
Protocol: Isolation of the adipose stromal-vascular fraction (SVF). Fat was isolated using equipment and reagents from TGI-100 kits (Tissue Genesis, Inc, Honolulu, Hi., USA) following the manufacturer's instructions, with modifications as necessary in order to process the subcutaneous pig fat. Briefly, the fat was finely minced in a sterile container before washing 3 times with the supplied buffer solution. The fat was transferred into 50 ml conical screw cap centrifuge tubes before adding 10 ml of filtered ADIPASE™ solution. The tissue was dissociated by incubation in an Enviro-Genie incubator shaker for 2.5 hours, instead of the manufacturer's recommended digestion time for human fat of 45 minutes. The stromal-vascular pellet was recovered by centrifugation, filtered serially through 100 μm then 40 μm diameter pore size polypropylene filters (FALCON®). Viable cell counts were obtained using a hemacytometer and staining was performed with Trypan blue. Only cells larger than approximately 8 μm in diameter were counted. The cells were resuspended in a 20 ml cell the supplied suspension medium immediately before delivery. In the ASC-H group, the suspension medium contained 50 U heparin/ml. The cells were continuously mixed gently by hand until loaded into the syringe for delivery.
Preparative yield of ASC. […]

In the case of heparin, the “aggregation at the highest concentration used” value (ASCs; 400 μg/ml) is reported as “still persisted”, the “concentration dependence of inhibition of ASC aggregation” value (ASCs) is reported as “dose dependent” and the “concentration dependence of inhibition of ASC aggregation” value (ASCs; listed as Heparin) is reported as “concentration dependent”. For the same compound, the “most effective concentration used for inhibition of ASC aggregation” value (ASCs; equals 100 U/ml) was 400 µg/mL, the aggregation of cells (ASCs; heparin 400 μg/ml final conc. in buffer) was “inhibits” and the “formation of aggregates of all sizes” value (ASCs; small 4-10 cells, large >10 cells, Image J counts) was “blocked”. The ASC proliferation (ASC; highest concentration, 400 μg/ml) was “totally inhibited”, the ASC proliferation (ASC; lowest concentration used, 50 μg/ml) was “inhibitory” and the “aggregation and subsequent microinfarctions” value (freshly isolated ASC) was “substantially diminished”.

O=C(O)CN(CCN(CC(=O)O)CC(=O)O)CC(=O)O [EDTA, ethylenediaminetetra-acetic acid] was tested, and the “effect of EDTA on aggregation with co-addition of Ca^2+” value (ASCs; EDTA then 7 mM Ca^2+) was “reversed” and the “cell aggregation with EDTA in the buffer” value (ASCs; cultured ASCs, EDTA during incubation) was “inhibited; also recorded: blocked”.

For trypsin, the “cell aggregation after trypsin pretreatment” value (ASCs; cultured ASCs, trypsin for 2 minutes) was “inhibited; also recorded: blocked”.
